This is an account of results in publication PMC5843756, “The drug interaction potential of daprodustat when coadministered with pioglitazone, rosuvastatin, or trimethoprim in healthy subjects” (Pharmacology Research & Perspectives, 2018).

For data set [1] the following is noted: coadministration of gemfibrozil, strong CYP2C8 inhibitor; ref Johnson et al. 2013; cited from earlier work.
The test system of another data set is hemoglobin levels. On the set-up: method as in Holdstock et al. 2016a. To be noted: ref Holdstock et al. 2016a, cited from earlier work.
Data set [2] is described as follows: Part A clinical DDI: plasma pharmacokinetics of pioglitazone and rosuvastatin with or without 100 mg daprodustat. To be noted: both, human, in vivo; for half-life: median elimination half-life, alone. The method, then: • Part A was an open‐label, randomized, single oral dose, two‐way cross‐over design that assessed the effects of a single, oral dose of 100 mg daprodustat on the pharmacokinetics of a single, oral dose of 15 mg pioglitazone and a single, oral dose of 10 mg rosuvastatin administered as a cocktail in healthy male and female subjects; • Part B was an open‐label, single sequence, two‐way cross‐over design to assess the effect of steady‐state trimethoprim (200 mg administered orally twice daily for 3 days) on the pharmacokinetics of a single, oral dose of 25 mg daprodustat in healthy, adult male and female subjects.
For Part A, for each of the two treatment periods, subjects remained in the Unit until 48 h postdosing, and were discharged following the last postdose assessment, if no clinically significant abnormalities were noted. Treatment periods were separated by at least a 7‐day washout. […]
Plasma analysis was performed under the management of Bioanalytical Science and Toxicokinetics, Drug Metabolism and Pharmacokinetics (DMPK), and GlaxoSmithKline (GSK). […] Samples were shipped frozen to PPD (Middleton, WI) where plasma samples were analyzed for rosuvastatin, pioglitazone, or daprodustat and predominant metabolites (GSK2391220 (M2), GSK2531403 (M3), GSK2487818 (M4), GSK2506102 (M5), GSK2531398 (M6), and GSK2531401 (M13)).
Pharmacokinetic analysis was performed using Phoenix WinNonLin® 6.3 (A Certara Company, Princeton, N.J). Pharmacokinetic parameters were determined from concentration–time data for pioglitazone, rosuvastatin, daprodustat, and predominant metabolites of daprodustat using standard noncompartmental methods.
Following loge transformation, AUC0‐∞ [defaulting to AUC0‐t if AUC0‐∞ could not be consistently determined] and C max of pioglitazone and rosuvastatin (for Part A) or daprodustat and six predominant metabolites (for Part B) were separately analyzed using a mixed‐effects model with fixed‐effect terms for treatment and period, and subject as a random effect in the model. […]

A further data set has as its system OATP1B1. To be noted: read-out: IC50 for inhibition of OATP1B1-mediated transport; in vitro transporter assays; earlier studies, no reference given; cited from earlier work.
The next data set has as its system CYP2C8. As to conditions: read-out: IC50 for inhibition of CYP2C8; human liver microsomes; earlier in vitro studies, no reference given; cited from earlier work. For orientation: Microsomes from liver hold many membrane-bound enzymes, among them those of drug oxidation.
The next data set deals with other CYPs. To be noted: human liver microsomes, up to 100 μmol/L; earlier in vitro studies, no reference given; cited from earlier work.
A short description of data set [3]: Part B clinical DDI: plasma pharmacokinetics of daprodustat and predominant metabolites with or without steady-state trimethoprim. The data set is classed as in vivo, human. To be noted: for AUC(0-t) / AUC(0-inf) / Cmax: geometric LS mean (%CV). The method, then: For Part B, all subjects were administered daprodustat on Day 1 with pharmacokinetic blood sampling over the next 48 h. Starting the morning of Day 3, all subjects were administered 200‐mg trimethoprim twice‐daily for 3 days (i.e., through Day 5). On Day 6 subjects were administered concomitantly daprodustat with 200 mg trimethoprim in the morning, with pharmacokinetic blood sampling occurring over the next 48 h. Trimethoprim continued to be administered at 12 h postdosing on Day 6, and twice daily on Day 7.
Blood samples for PK analyses were collected on Day 1 and Day 6 predose and at 0.25, 0.5, 1, 2, 3, 4, 5, 6, 8, 12, 18, 24, and 48 h postdose.
No formal hypothesis was tested in this study.

A short description of data set [4]: Tolerability (adverse events), Parts A and B. The data set is classed as in vivo, human. From the text:
Tolerability measures included adverse events (AEs), serious adverse events (SAEs), clinical laboratory findings, vital signs, and concurrent medication assessments. An AE was defined as any untoward medical occurrence in a subject or clinical investigation subject, temporally associated with the use of an investigational product, whether or not considered related to the investigational product. […] The investigator or site staff was responsible for detecting, documenting, and reporting events that met the definition of an AE or SAE.

Details of data set [5]: method as in Deng et al. 2005. To be noted: pioglitazone with gemfibrozil, strong CYP2C8 inhibitor; ref Deng et al. 2005; cited from earlier work.
[6] abbreviates: 25 mg daprodustat + trimethoprim vs daprodustat alone.
The mark [7] stands for this setting: test:reference (with vs without trimethoprim).
Setting [8] is: Part B, Regimen C (n = 20) 25 mg daprodustat, Regimen D (n = 19) 25 mg daprodustat + 200 mg trimethoprim BID for 5 days.

Molecules are shown by their SMILES. Values joined by “and” are separate entries in the source; they are usually repeats but may differ in a detail not shown here. Equal values may be shown once. Read-outs that look alike come from different tables or passages of the source.

The Cmax is the maximum level reached in the sampled fluid or tissue. One may read the IC50 as the concentration that gives 50% inhibition. Usually half-life stands for the time in which the quantity being followed falls by half. On to `O=C(O)CNC(=O)C1C(=O)N(C2CCCCC2)C(=O)N(C2CCCCC2)C1=O` [daprodustat], for which, in [1], the “fold increase in daprodustat AUC with gemfibrozil” value is reported as 19 fold and the “fold increase in daprodustat Cmax with gemfibrozil” value is on record as 4 fold. Besides, the mean hemoglobin levels entry with hemoglobin levels (HDD subjects switched from ESA treatment, 5 mg once daily, 4-week treatment period) was “maintained mean hemoglobin levels”. Further, the “mean increase in hemoglobin” value in the data set with hemoglobin levels (NDD patients naïve to ESA treatment, oral 5 mg once daily, over 4 weeks) is on record as 1 gm/dL. The compound also displayed a Cmax in data set [2] (100 mg) of about 4.5 µM. For the same compound, the IC50 in the data set with OATP1B1 is 6 µM. Moreover, the IC50 in the data set with CYP2C8 is 21 µM. Also, in the data set on other CYPs, the “inhibition of other CYPs” value is “no inhibition was observed”. Further, in data set [3] (setting [6]), the “fold increase in AUC with trimethoprim coadministration” value was 1.48 fold, the “fold increase in Cmax with trimethoprim coadministration” value came to 1.28 fold, the “increase in plasma AUC with trimethoprim coadministration” value is recorded as 48% and the “increase in plasma Cmax with trimethoprim coadministration” value is on record as 28%. The AUC(0-t) in [3] (both sexes, human, oral, reference: 25 mg daprodustat alone, plasma, read-out: AUC0-t, Reference) came out at 936 ng·h/mL. In data set [3] (both sexes, human, oral, reference: 25 mg daprodustat alone, plasma, read-out: AUC0-∞, Reference), the AUC(0-inf) was found to be 937 ng·h/mL. Also, in data set [3] (both sexes, human, oral, reference: 25 mg daprodustat alone, plasma, read-out: Cmax, Reference), the Cmax was 442 ng/mL. The AUC(0-t) in data set [3] (both sexes, human, oral, test: two 100 mg trimethoprim tablets (steady state) + 25 mg daprodustat, plasma, read-out: AUC0-t, Test) was 1370 ng·h/mL. Besides, the AUC(0-inf) in [3] (both sexes, human, oral, test: two 100 mg trimethoprim tablets (steady state) + 25 mg daprodustat, plasma, read-out: AUC0-∞, Test) was determined as 1370 ng·h/mL. For the same compound, in data set [3] (both sexes, human, oral, test: two 100 mg trimethoprim tablets (steady state) + 25 mg daprodustat, plasma, read-out: Cmax, Test), the highest concentration (Cmax) was 560 ng/mL. For the same compound, the half-life in data set [3] (both sexes, human, plasma, oral, 25 mg daprodustat alone, read-out: median elimination half-life, alone (converted)) is 3.06 h. The “time of observed peak plasma levels” value in data set [3] (both treatment periods (with and without steady-state trimethoprim)) was 1 h. For the same compound, in [3] (setting [7]), the “AUC0-t, Geometric LS mean ratio (90% CI)” value is listed as 1.48 (1.39, 1.59); the “AUC0-∞, Geometric LS mean ratio (90% CI)” value was 1.48 (1.39, 1.59); the “Cmax, Geometric LS mean ratio (90% CI)” value is 1.28 (1.09, 1.51). In addition, in [4] (setting [8]), the Aphthous stomatitis is 0 n (%); the Catheter site phlebitis is reported as 0 n (%); the Constipation was 1 (5) n (%); the Diarrhea was 2 (10%) n (%) and 2 (10) n (%). Further, in data set [4] (setting [8]), the Nausea is on record as 0 n (%), the Rhinitis was 0 n (%), the Tongue coated is on record as 0 n (%) and the Vomiting is 1 (5) n (%). The Vulvovaginal mycotic infection in data set [4] (setting [8]) was 0 n (%). In addition, the “proportion of subjects reporting AEs” value in data set [4] (per regimen, Parts A and B, healthy subjects) was determined as 10%.
`CC(C)c1nc(N(C)S(C)(=O)=O)nc(-c2ccc(F)cc2)c1/C=C/[C@@H](O)C[C@@H](O)CC(=O)O` [rosuvastatin] gave a half-life in [2] of 15.6 h.
The compound `CCc1ccc(CCOc2ccc(CC3SC(=O)NC3=O)cc2)nc1` (stereo not drawn) [pioglitazone] had a half-life in data set [2] of 7.01 h. In addition, in [5], the “fold increase in AUC0-∞ with gemfibrozil” value is on record as 3.4 fold.
